Assay results taken from ChEMBL document CHEMBL1201862, “PubChem BioAssay data set” (2004).
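Grown in 96-well plates, cells were treated for 48 hours with each compound at five concentrations. Insufficient inhibition: endpoint recorded as highest concentration tested. Here, GI50 denotes the concentration required for 50% inhibition of growth.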 Activity calls are given as the source filed them. Rule as the data show it: active = GI50 up to about 1.1 µM and inactive = higher.

Key:
Assay in all cases: growth of human tumour cells (NCI), 48 h
[1] = system: OVCAR-4
[2] = system: M19-MEL
[3] = system: SK-OV-3
[4] = system: U-251
[5] = system: HCT-116
[6] = system: OVCAR-5
[7] = system: SF-295
[8] = system: OVCAR-3
[9] = system: COLO 205
[10] = system: TK-10
[11] = system: SW-620
[12] = system: 786-0
[13] = system: HCC 2998
[14] = system: NCI-H460
[15] = system: NCI-H226
[16] = system: UACC-257
[17] = system: HOP-62
[18] = system: PC-3
[19] = system: MDA-MB-231
[20] = system: SR

Measured: GI50

Cn1c(N)c(-c2c3ccccc3nc3ccccc23)c(=O)n(C)c1=O
inactive: [1] > 100 µM | [2] > 100 µM | [3] > 100 µM | [4] > 100 µM | [5] > 100 µM | [6] > 100 µM | [7] > 100 µM | [8] > 100 µM | [9] > 100 µM | [10] > 100 µM | [11] > 100 µM | [12] > 100 µM

CCOC(=O)C(=O)Nc1nc2c(OCC)cccc2s1
inactive: [1] > 100 µM | [2] > 100 µM | [3] > 100 µM | [4] > 100 µM | [13] > 100 µM | [5] > 100 µM | [6] > 100 µM | [14] > 100 µM | [7] > 100 µM | [15] > 100 µM | [8] > 100 µM | [9] > 100 µM | [16] > 100 µM | [17] > 100 µM | [10] > 100 µM | [11] > 100 µM | [12] > 100 µM

O=C(Nc1cccc(NC(=O)c2cc(=O)c3ccccc3o2)n1)c1cc(=O)c2ccccc2o1
inactive: [1] 44.6 µM | [2] > 100 µM | [3] > 100 µM | [4] 66.8 µM | [13] 60.1 µM | [5] 27.1 µM | [6] > 100 µM | [14] 40.4 µM | [8] 37.6 µM | [9] 74.3 µM | [16] 56.5 µM | [17] 90.8 µM | [10] > 100 µM | [11] > 100 µM | [12] > 100 µM

N#CC(/C(=N/NC(=O)C(=O)NN)C(=O)Nc1nc([N+](=O)[O-])cs1)c1ccc(Cl)cc1 (configuration not stated)
inactive: [1] > 100 µM | [2] > 100 µM | [4] > 100 µM | [13] > 100 µM | [5] > 100 µM | [6] > 100 µM | [14] > 100 µM | [7] > 100 µM | [15] > 100 µM | [8] > 100 µM | [9] > 100 µM | [16] > 100 µM | [17] > 100 µM | [10] > 100 µM | [11] > 100 µM | [12] > 100 µM

Oc1ccc(O)c(-n2cccn2)c1
inactive: [1] > 100 µM | [2] 30 µM | [3] > 100 µM | [4] > 100 µM | [13] > 100 µM | [6] 88.9 µM | [14] > 100 µM | [7] 95.1 µM | [9] 23 µM | [17] > 100 µM | [10] 32.1 µM | [11] 29.3 µM | [12] 62.1 µM

CC(=O)Nc1ccccc1[S+]([O-])c1ccccc1 (configuration not stated)
inactive: [1] > 100 µM | [2] > 100 µM | [3] 84.5 µM | [4] > 100 µM | [13] > 100 µM | [5] > 100 µM | [6] 4.21 µM | [14] > 100 µM | [7] > 100 µM | [15] > 100 µM | [8] > 100 µM | [9] > 100 µM | [16] > 100 µM | [17] > 100 µM | [10] > 100 µM | [11] > 100 µM | [12] > 100 µM

C#CCN(C)C(=O)N(CC#C)N=O
inactive: [1] > 100 µM | [2] > 100 µM | [3] > 100 µM | [4] 54.2 µM | [5] > 100 µM | [6] 29.5 µM | [14] > 100 µM | [7] > 100 µM | [8] > 100 µM | [9] > 100 µM | [16] > 100 µM | [17] > 100 µM | [10] > 100 µM | [11] > 100 µM | [12] > 100 µM

CCCCCCCCCCc1c2nc(c(CCCCCCCCCC)c3ccc([nH]3)c(CCCCCCCCCC)c3nc(c(CCCCCCCCCC)c4ccc1[nH]4)C=C3)C=C2
inactive: [1] > 100 µM | [3] > 100 µM | [4] > 100 µM | [13] > 100 µM | [5] > 100 µM | [6] > 100 µM | [14] > 100 µM | [18] > 100 µM | [7] > 100 µM | [15] > 100 µM | [19] > 100 µM | [8] > 100 µM | [20] > 100 µM | [9] > 100 µM | [16] > 100 µM | [17] > 100 µM | [10] > 100 µM | [11] > 100 µM | [12] > 100 µM

O=C(c1ccccc1)C(c1ccccc1)C1(O)C(=O)Nc2ccccc21 (configuration not stated)
inactive: [1] > 100 µM | [2] > 100 µM | [3] > 100 µM | [13] > 100 µM | [5] > 100 µM | [6] > 100 µM | [14] > 100 µM | [7] > 100 µM | [15] > 100 µM | [8] > 100 µM | [9] > 100 µM | [16] > 100 µM | [17] > 100 µM | [10] > 100 µM | [11] > 100 µM | [12] > 100 µM

Cc1ccc(S(=O)(=O)n2cc(/C=C/C#N)c(/C=C/C#N)c2)cc1
inactive: [1] 59.4 µM | [2] > 100 µM | [3] > 100 µM | [4] 94.8 µM | [6] > 100 µM | [14] > 100 µM | [7] 55.5 µM | [8] 37.1 µM | [9] > 100 µM | [16] 82 µM | [17] > 100 µM | [10] > 100 µM | [11] 40 µM | [12] > 100 µM

Cc1ccc(C(=O)NC(C)C)cc1/N=N/N(C)C
inactive: [1] > 100 µM | [2] > 100 µM | [4] > 100 µM | [13] > 100 µM | [5] > 100 µM | [14] > 100 µM | [7] > 100 µM | [8] > 100 µM | [16] > 100 µM | [17] > 100 µM | [10] > 100 µM | [11] > 100 µM | [12] > 100 µM

CC(=O)O[C@H]1CCN2C(=O)C=CC(OCc3ccccc3)C12 (some centres not stated)
inactive: [1] > 100 µM | [2] > 100 µM | [3] > 100 µM | [4] > 100 µM | [13] > 100 µM | [6] > 100 µM | [14] > 100 µM | [7] > 100 µM | [15] > 100 µM | [8] > 100 µM | [9] > 100 µM | [16] > 100 µM | [17] > 100 µM | [10] > 100 µM | [11] > 100 µM | [12] > 100 µM

CC12CC[C@@H](C(C)(C)O)C1[C@@H](O)CC1(C)C2CCC2[C@@]3(C)CC[C@H](O)C(C)(C)C3C(O)C[C@]21C (some centres not stated)
inactive: [1] 13.1 µM | [2] 24.3 µM | [4] 13.4 µM | [13] 16.3 µM | [5] 11.4 µM | [6] 17.5 µM | [14] 15.3 µM | [7] 18.3 µM | [8] 16.8 µM | [9] 15.6 µM | [16] > 10 µM | [10] 16.4 µM | [11] 18 µM | [12] 12.1 µM
